Consider 41 molecules from ChEMBL document CHEMBL4680145, “Expansion of chemical space based on a pyrrolo[1,2-a]pyrazine core: Synthesis and its anticancer activity in prostate cancer and breast cancer cells” (Eur J Med Chem, 2020).

pIC50: −log10 of the molar value.

In assay [1] the test system is PC-3. Description: Cytotoxicity against human PC-3 cells assessed as cell viability at 30 uM incubated for 48 hrs by MTS assay relative to control. In kind it is functional. The following applies: read-out: Activity. On the technique in general: Formazan colour is commonly taken as a measure of viable cells.
The subject of assay [2] is MCF7. The assay is described as follows: Cytotoxicity against human MCF7 cells assessed as cell viability at 30 uM incubated for 48 hrs by MTS assay relative to control. In kind it is functional. As to conditions: read-out: Activity.
Assay [3] has as its system PC-3. The assay is described as follows: Cytotoxicity against human PC-3 cells assessed as reduction in cell viability incubated for 48 hrs by MTS assay. In kind it is functional, cell-based. As to conditions: PC-3, 48 h.
Assay [4] concerns MCF7. Description: Antimigratory activity against human MCF7 cells assessed as reduction in cell migration measured every 2 hrs for 24 hrs by wound healing assay. As to conditions: dose 1-10 µM. Format: functional, cell-based.
Assay [5] concerns PC-3. The assay is described as follows: Antimigratory activity against human PC-3 cells assessed as reduction in cell migration measured every 2 hrs for 24 hrs by wound healing assay. In kind it is functional, cell-based. As to conditions: dose 1-10 µM.
Assay [6] relates to MCF7. The assay is described as follows: Cytotoxicity against human MCF7 cells assessed as reduction cell viability incubated for 48 hrs by MTS assay. Format: functional, cell-based. As to conditions: MCF7, 48 h.

For `O=C(c1ccc(F)cc1)[C@@H]1[C@@H](c2ccncc2)N=Cc2cccn21` (relative stereo), the viability at 30 µM in the assay on PC-3 [1] is 100%; with MCF7 [2], 78.5%.
Taken in the same sequence, the figures for `O=C(c1ccc(F)cc1)[C@@H]1[C@@H](c2ccco2)N=Cc2cccn21` (relative stereo) were 99.4% and 70%.
`Cc1ccc([C@H]2N=Cc3cccn3[C@@H]2C(=O)c2ccc(Cl)cc2)cc1` (relative stereo): the figures for the viability at 30 µM with PC-3 [1] and in the assay on MCF7 [2] were 104% and 100%, respectively.
As to `COc1ccc([C@H]2N=Cc3cccn3[C@@H]2C(=O)c2ccc(F)cc2)cc1OC` (relative stereo), the viability at 30 µM with PC-3 [1] was determined as 96.7%; in the assay with MCF7 [2], 72.8%.
Taken in the same sequence, the figures for `O=C(c1ccccc1)[C@@H]1[C@@H](c2ccc([N+](=O)[O-])cc2)N=Cc2cccn21` (relative stereo) were 86.9% and 85.1%.
Taken in the same sequence, the figures for `O=C(c1ccc(Br)cc1)[C@@H]1[C@@H](c2ccccc2)N=Cc2cccn21` (relative stereo) were 68.5% and 66.9%.
Taken in the same sequence, the figures for `COc1ccc([C@H]2N=Cc3cccn3[C@@H]2C(=O)c2cccc(OC)c2)cc1` (relative stereo) were 83.8% and 77.9%.
As to `O=C(c1ccccc1)[C@@H]1[C@@H](c2ccccc2)N=Cc2cccn21` (relative stereo), the viability at 30 µM with PC-3 [1] was determined as 106%; with MCF7 [2] it was 104%.
Taken in the same sequence, the figures for `C[N+]1=Cc2cccn2[C@H](C(=O)c2ccc(Br)cc2)[C@H]1c1ccccc1` (relative stereo) were 97.9% and 98.1%.
In the case of `COc1ccccc1[C@H]1N=Cc2cccn2[C@@H]1C(=O)c1ccc(Cl)cc1` (relative stereo), the viability at 30 µM was 99.5% in the assay with PC-3 [1] and 96.5% in the assay with MCF7 [2].
Take `COc1ccc(C(=O)C[N+]2=Cc3cccn3[C@H](C(=O)c3ccc(Br)cc3)[C@H]2c2ccccc2)cc1` (relative stereo): the viability at 30 µM with PC-3 [1] amounted to 56%; in the assay on MCF7 [2], 54.5%.
Take `COc1ccccc1[C@H]1N=Cc2cccn2[C@@H]1C(=O)c1ccccc1` (relative stereo): the values for the viability at 30 µM with PC-3 [1] and in the assay with MCF7 [2] were 95.5% and 107%, respectively.
Taken in the same sequence, the figures for `O=C(c1ccccc1)[C@@H]1[C@@H](c2ccc(Cl)cc2)N=Cc2cccn21` (relative stereo) were 84.8% and 102%.
Turning to `O=C(c1ccc(Br)cc1)[C@@H]1[C@@H](c2ccccc2)[N+](Cc2ccccc2)=Cc2cccn21` (relative stereo), the figures for the viability at 30 µM in the assay with PC-3 [1] and with MCF7 [2] were 97.9% and 98.1%, respectively.
As for `O=C(C[N+]1=Cc2cccn2[C@H](C(=O)c2ccc(Br)cc2)[C@H]1c1ccccc1)c1ccc(Cl)cc1` (relative stereo), the viability at 30 µM in the assay with PC-3 [1] came to 80.8%; with MCF7 [2], 82.5%.
Taken in the same sequence, the figures for `O=C(c1ccccc1)[C@@H]1[C@@H](c2ccc(Br)cc2)N=Cc2cccn21` (relative stereo) were 83.3% and 99.9%.
On to `COc1ccc([C@H]2N=Cc3cccn3[C@@H]2C(=O)c2ccc(Br)cc2)cc1` (relative stereo), for which, in the assay on PC-3 [3], the pIC50 is 4.69. Also, the results for the viability at 30 µM in the assay with PC-3 [1] and with MCF7 [2] were 28.6% and 39.8%, respectively.
As to `O=C(C[N+]1=Cc2cccn2[C@H](C(=O)c2ccc(Br)cc2)[C@H]1c1ccccc1)c1ccc(F)cc1` (relative stereo), the viability at 30 µM with PC-3 [1] was 10.7%; with MCF7 [2], 33.8%.
Regarding `COc1ccc([C@@H]2[C@@H](C(=O)c3ccc(Br)cc3)n3cccc3C=[N+]2CC(=O)c2ccccc2)cc1` (relative stereo), the inhibition result in the assay on MCF7 [4] and with PC-3 [5] was “Dose-dependent effect” throughout. Besides, the figures for the pIC50 in the assay on MCF7 [6] and in the assay on PC-3 [3] were 5.61 and 5.66, respectively. In addition, the viability at 30 µM came to 6.3% with PC-3 [1] and 6.4% with MCF7 [2].
With `COc1ccc(C(=O)[C@@H]2[C@@H](c3ccc(OC)c(OC)c3)N=Cc3cccn32)cc1` (relative stereo), the viability at 30 µM with PC-3 [1] was 102%; in the assay on MCF7 [2], 98%.
Taken in the same sequence, the figures for `COc1ccccc1[C@H]1N=Cc2cccn2[C@@H]1C(=O)c1ccc(F)cc1` (relative stereo) were 86.4% and 69.3%.
For the molecule `O=C(c1ccccc1)[C@@H]1[C@@H](c2cc3ccccc3[nH]2)N=Cc2cccn21` (relative stereo), the viability at 30 µM came to 92.1% in the assay on PC-3 [1] and 106% in the assay on MCF7 [2].
Consider `O=C(c1ccc(F)cc1)[C@@H]1[C@@H](c2ccccc2)N=Cc2cccn21` (relative stereo), for which the results for the viability at 30 µM in the assay on PC-3 [1] and with MCF7 [2] were 76% and 70.3%, respectively.
Taken in the same sequence, the figures for `O=C(c1ccc(Br)cc1)[C@@H]1[C@@H](c2ccccn2)N=Cc2cccn21` (relative stereo) were 73.2% and 67.5%.
Taken in the same sequence, the figures for `COc1cc(OC)cc([C@H]2N=Cc3cccn3[C@@H]2C(=O)c2ccccc2)c1` (relative stereo) were 106% and 102%.
Taken in the same sequence, the figures for `COc1cccc(C(=O)[C@@H]2[C@@H](c3ccncc3)N=Cc3cccn32)c1` (relative stereo) were 91.4% and 95.5%.
Regarding `CCOC(=O)C[N+]1=Cc2cccn2[C@H](C(=O)c2ccc(Br)cc2)[C@H]1c1ccccc1` (relative stereo), the pIC50 in the assay with PC-3 [3] is 5.06. Also, the results for the viability at 30 µM in the assay with PC-3 [1] and with MCF7 [2] were 10.7% and 24%, respectively.
For `O=C(c1ccc(Br)cc1)[C@@H]1[C@@H](c2ccco2)N=Cc2cccn21` (relative stereo), the viability at 30 µM was 99.2% with PC-3 [1] and 96.5% in the assay on MCF7 [2].
In the case of `COc1ccc(C(=O)[C@@H]2[C@@H](c3ccc(C)cc3)N=Cc3cccn32)cc1` (relative stereo), the results for the viability at 30 µM in the assay with PC-3 [1] and in the assay with MCF7 [2] were 81.3% and 77.4%, respectively.
Taken in the same sequence, the figures for `COc1cccc(C(=O)[C@@H]2[C@@H](c3ccccc3)N=Cc3cccn32)c1` (relative stereo) were 104% and 104%.
Consider `COc1ccc(C(=O)[C@@H]2[C@@H](c3ccc(Br)cc3)N=Cc3cccn32)cc1` (relative stereo), for which the viability at 30 µM is 96.4% in the assay with PC-3 [1] and 100% in the assay with MCF7 [2].
Turning to `O=C(c1ccc(Br)cc1)c1c(-c2ccccc2)ncc2cccn12`, the pIC50 in the assay on PC-3 [3] was 5.14. Further, the viability at 30 µM with PC-3 [1] was found to be 5.8%; in the assay on MCF7 [2], 37%.
As to `O=C(c1ccccc1)[C@@H]1[C@@H](c2ccco2)N=Cc2cccn21` (relative stereo), the viability at 30 µM was 59% in the assay on PC-3 [1] and 95.3% with MCF7 [2].
Taken in the same sequence, the figures for `COc1ccc(C(=O)[C@@H]2[C@@H](c3ccco3)N=Cc3cccn32)cc1` (relative stereo) were 55.7% and 99.9%.
`O=C(c1ccc(F)cc1)[C@@H]1[C@@H](c2ccc(Br)cc2)N=Cc2cccn21` (relative stereo): the pIC50 in the assay with PC-3 [3] was 4.79. In addition, the results for the viability at 30 µM in the assay on PC-3 [1] and in the assay with MCF7 [2] were 18.5% and 31.1%, respectively.
Take `COc1cccc(C(=O)[C@@H]2[C@@H](c3ccc(Cl)cc3)N=Cc3cccn32)c1` (relative stereo): the viability at 30 µM in the assay with PC-3 [1] was found to be 99.6%; with MCF7 [2], 118%.
Taken in the same sequence, the figures for `O=C(c1ccc(Cl)cc1)[C@@H]1[C@@H](c2ccc[nH]2)N=Cc2cccn21` (relative stereo) were 102% and 102%.
Taken in the same sequence, the figures for `O=C(c1ccc(Cl)cc1)[C@@H]1[C@@H](c2ccccc2)N=Cc2cccn21` (relative stereo) were 99.9% and 99.3%.
`Cc1ccc([C@H]2N=Cc3cccn3[C@@H]2C(=O)c2ccccc2)cc1` (relative stereo): the viability at 30 µM in the assay on PC-3 [1] and in the assay with MCF7 [2] was 108% throughout.
With `Cc1ccc([C@H]2N=Cc3cccn3[C@@H]2C(=O)c2ccc(Br)cc2)cc1` (relative stereo), the results for the viability at 30 µM in the assay on PC-3 [1] and with MCF7 [2] were 99% and 99.9%, respectively.
Taken in the same sequence, the figures for `Cc1ccc([C@H]2N=Cc3cccn3[C@@H]2C(=O)c2ccc(F)cc2)cc1` (relative stereo) were 99.8% and 111%.

As usually defined, the pIC50 is the negative decadic logarithm of the IC50, by convention in mol/L.
